Our source for the IC50 values is patent US20080200454A1, “CARBON-LINKED TETRAHYDRO-PYRAZOLO-PYRIDINE MODULATORS OF CATHEPSIN S” (priority 2007, published 2008).

The assay addresses Recombinant human cathepsin S (CatS) (Homo sapiens, UniProt P25774). The assay is described as follows: Recombinant human cathepsin S (CatS) inhibition assay, fluorogenic substrate Z-Valine-Valine-Arginine-AMC.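 Further: Baculovirus-expressed CatS in pH 5.0 sodium acetate buffer with DTT and NaCl, fluorescence read each minute over 20 min, inhibition derived from rate slope.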

Where two headings read alike, the source gives them in different places.

Usually IC50 stands for the concentration that inhibits the measured activity by half.

Sequence of Recombinant human cathepsin S (CatS) (P25774 115-331): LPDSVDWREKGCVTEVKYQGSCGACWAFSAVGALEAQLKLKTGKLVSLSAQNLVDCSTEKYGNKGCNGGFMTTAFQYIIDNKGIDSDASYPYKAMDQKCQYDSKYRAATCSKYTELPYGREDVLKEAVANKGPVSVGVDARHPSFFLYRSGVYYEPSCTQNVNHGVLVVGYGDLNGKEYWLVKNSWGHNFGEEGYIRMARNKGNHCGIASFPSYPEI

Regarding `C[C@H]1COCCN1CCCn1nc(-c2ccc(Cl)c(C#Cc3ccc(CNCc4ccc(Cl)cc4)cc3)c2)c2c1CCN(C(=O)CO)C2` [Example 402, 2-[3-(4-Chloro-3-{[4-({[(4-chlorophenyl)methyl]amino}methyl)phenyl]ethynyl}phenyl)-1-{3-[(3S)-3-methylmorpholin-4-yl]propyl}-1,4,6,7-tetrahydro-5H-pyrazolo[4,3-c]pyridin-5-yl]-2-oxoethanol], for the setting “CatS IC50”, the IC50 amounted to 150 nM.

Regarding `NC(=O)N1CCc2c(c(-c3ccc(Cl)c(C#Cc4ccc(CNCc5ccc(Cl)cc5)cc4)c3)nn2CCCN2CCOCC2)C1` [Example 151, 3-(4-Chloro-3-{[4-({[(4-chlorophenyl)methyl]amino}methyl)phenyl]ethynyl}phenyl)-1-(3-morpholin-4-ylpropyl)-1,4,6,7-tetrahydro-5H-pyrazolo[4,3-c]pyridine-5-carboxamide], the IC50 came out at 90 nM.

Turning to `CS(=O)(=O)N1CCc2c(c(-c3ccc(Cl)c(C#Cc4ccc(Cl)cc4)c3)nn2CC(O)CN2CCNCC2)C1` (centres unmarked) [Example 132, 1-{3-[4-Chloro-3-(4-chloro-phenylethynyl)-phenyl]-5-methanesulfonyl-4,5,6,7-tetrahydro-pyrazolo[4,3-c]pyridin-1-yl}-3-piperazin-1-yl-propan-2-ol], the IC50 came to 390 nM.

Consider `CS(=O)(=O)N1CCc2c(c(-c3ccc(Cl)c(C#Cc4ccc(O)cc4)c3)nn2CCCN2CCOCC2)C1` [Example 7, 4-{2-Chloro-5-[5-methanesulfonyl-1-(3-morpholin-4-yl-propyl)-4,5,6,7-tetrahydro-1H-pyrazolo[4,3-c]pyridin-3-yl]-phenylethynyl}-phenol], for which the 50% inhibitory concentration (IC50) worked out at 250 nM.

As to `CS(=O)(=O)N1CCc2c(c(-c3ccc(Cl)c(C#Cc4cccc(CC(=O)O)c4)c3)nn2CCCN2CCOCC2)C1` [Example 16, (3-{2-Chloro-5-[5-methanesulfonyl-1-(3-morpholin-4-yl-propyl)-4,5,6,7-tetrahydro-1H-pyrazolo[4,3-c]pyridin-3-yl]-phenylethynyl}-phenyl)-acetic acid], the IC50 was determined as 1150 nM.

Regarding `CS(=O)(=O)N1CCc2c(c(-c3ccc(Cl)c(C#Cc4ccc5c(c4)CNCC5)c3)nn2CCCN2CCN(C3CC3)CC2)C1` [Example 415, 7-[(2-Chloro-5-{1-[3-(4-cyclopropylpiperazin-1-yl)propyl]-5-(methylsulfonyl)-4,5,6,7-tetrahydro-1H-pyrazolo[4,3-c]pyridin-3-yl}phenyl)ethynyl]-1,2,3,4-tetrahydroisoquinoline], the IC50 is 90 nM.

Consider `CS(=O)(=O)N1CCc2c(c(-c3ccc(Cl)c(C#Cc4ccc(CNCC(F)(F)F)cc4)c3)nn2CCCN2CCC(N3CCCC3=O)CC2)C1` [Example 348, 1-(1-{3-[3-{4-Chloro-3-[(4-{[(2,2,2-trifluoroethyl)amino]methyl}phenyl)ethynyl]phenyl}-5-(methylsulfonyl)-4,5,6,7-tetrahydro-1H-pyrazolo[4,3-c]pyridin-1-yl]propyl}piperidin-4-yl)pyrrolidin-2-one], for which, under “CatS IC50”, the IC50 amounted to 100 nM.

Regarding `CS(=O)(=O)N1CCc2c(c(-c3ccc(Cl)c(C#Cc4ccc5c(c4)CNCC5)c3)nn2CCCN2CCOCC2)C1` [Example 360, 7-({2-Chloro-5-[5-(methylsulfonyl)-1-(3-morpholin-4-ylpropyl)-4,5,6,7-tetrahydro-1H-pyrazolo[4,3-c]pyridin-3-yl]phenyl}ethynyl)-1,2,3,4-tetrahydroisoquinoline], the IC50 stood at 170 nM.

For the molecule `CC1COCCN1CCCn1nc(-c2ccc(Cl)c(C#Cc3ccc(Cl)c(CNCc4ccccc4)c3)c2)c2c1CCN(C(N)=O)C2` (stereo in doubt) [Example 224, 3-{4-Chloro-3-[(4-chloro-3-{[(phenylmethyl)amino]methyl}phenyl)ethynyl]phenyl}-1-{3-[(3S)-3-methylmorpholin-4-yl]propyl}-1,4,6,7-tetrahydro-5H-pyrazolo[4,3-c]pyridine-5-carboxamide], under “CatS IC50”, the IC50 was 20 nM.

As for `CS(=O)(=O)N1CCc2c(c(-c3ccc(Cl)c(C#Cc4ccc(CNCc5ccc(Cl)cc5)cc4)c3)nn2CCCN2CCC(c3ccccn3)CC2)C1` [Example 177, 1-{4-[(2-Chloro-5-{5-(methylsulfonyl)-1-[3-(4-pyridin-2-ylpiperidin-1-yl)propyl]-4,5,6,7-tetrahydro-1H-pyrazolo[4,3-c]pyridin-3-yl}phenyl)ethynyl]phenyl}-N-[(4-chlorophenyl)methyl]methanamine], the IC50 was determined as 10 nM.

Regarding `CS(=O)(=O)N1CCc2c(c(-c3ccc(Cl)c(C#Cc4ccc5c(c4)CN[C@H](C(=O)N4CCOCC4)C5)c3)nn2CCCN2CCOCC2)C1` [Example 194, (3S)-7-({2-Chloro-5-[5-(methylsulfonyl)-1-(3-morpholin-4-ylpropyl)-4,5,6,7-tetrahydro-1H-pyrazolo[4,3-c]pyridin-3-yl]phenyl}ethynyl)-3-(morpholin-4-ylcarbonyl)-1,2,3,4-tetrahydroisoquinoline], the IC50 (CatS IC50) turned out to be 20 nM.

`CC(=O)NC1CCN(CC(O)Cn2nc(-c3ccc(Cl)c(C#Cc4ccc(CNCc5ccc(Cl)cc5)cc4)c3)c3c2CCN(S(C)(=O)=O)C3)CC1` (centres unmarked) [Example 362, N-(1-{3-[3-(4-Chloro-3-{[4-({[(4-chlorophenyl)methyl]amino}methyl)phenyl]ethynyl}phenyl)-5-(methylsulfonyl)-4,5,6,7-tetrahydro-1H-pyrazolo[4,3-c]pyridin-1-yl]-2-hydroxypropyl}piperidin-4-yl)acetamide]: the IC50 is 50 nM.

Turning to `CN(Cc1ccccc1)Cc1cccc(CCc2cc(-c3nn(CCCN4CCOCC4)c4c3CN(S(C)(=O)=O)CC4)ccc2Cl)c1` [Example 530, 1-[3-(2-{2-Chloro-5-[5-(methylsulfonyl)-1-(3-morpholin-4-ylpropyl)-4,5,6,7-tetrahydro-1H-pyrazolo[4,3-c]pyridin-3-yl]phenyl}ethyl)phenyl]-N-methyl-N-(phenylmethyl)methanamine], the IC50 is 1330 nM.

As to `CC(NCc1cccc(C#Cc2cc(-c3nn(CCCN4CCOCC4)c4c3CN(S(C)(=O)=O)CC4)ccc2Cl)c1)c1ccccc1` (centres unmarked) [Example 507, N-{[3-({2-Chloro-5-[5-(methylsulfonyl)-1-(3-morpholin-4-ylpropyl)-4,5,6,7-tetrahydro-1H-pyrazolo[4,3-c]pyridin-3-yl]phenyl}ethynyl)phenyl]methyl}-1-phenylethanamine], the IC50 is 570 nM.

Consider `NC(=O)C(=O)N1CCc2c(c(-c3ccc(Cl)c(C#Cc4ccc(CNCc5ccc(Cl)cc5)cc4)c3)nn2C[C@H](O)CN2CCSCC2)C1` [Example 250, (R)-2-[3-(4-Chloro-3-{4-[(4-chloro-benzylamino)-methyl]-phenylethynyl}-phenyl)-1-(2-hydroxy-3-thiomorpholin-4-yl-propyl)-1,4,6,7-tetrahydro-pyrazolo[4,3-c]pyridin-5-yl]-2-oxo-acetamide], for which the IC50 (CatS IC50) was 80 nM.

As for `O=C(CO)N1CCc2c(c(-c3ccc(Cl)c(C#Cc4ccc(CNCc5ccc(Cl)cc5)cc4)c3)nn2CCCN2CCN(c3ccccc3)CC2)C1` [Example 172, 2-{3-(4-Chloro-3-{[4-({[(4-chlorophenyl)methyl]amino}methyl)phenyl]ethynyl}phenyl)-1-[3-(4-phenylpiperazin-1-yl)propyl]-1,4,6,7-tetrahydro-5H-pyrazolo[4,3-c]pyridin-5-yl}-2-oxoethanol], the IC50 (CatS IC50) was found to be 30 nM.

For the molecule `CS(=O)(=O)N1CCc2c(c(-c3ccc(Cl)c(C#Cc4ccc(CNCc5ccc(Cl)cc5)cc4)c3)nn2CCCN2CCOC(CO)C2)C1` (centres unmarked) [Example 389], the half-inhibitory concentration (IC50) was 230 nM.

For the molecule `CC(C)CC#Cc1cc(-c2nn(C[C@@H](O)CN3CCC(C4CCN(C(=O)OC(C)(C)C)CC4)CC3)c3c2CN(S(C)(=O)=O)CC3)ccc1Cl` [Example 231, 1,1-Dimethylethyl 1′-[(2S)-3-{3-[4-chloro-3-(4-methylpent-1-yn-1-yl)phenyl]-5-(methylsulfonyl)-4,5,6,7-tetrahydro-1H-pyrazolo[4,3-c]pyridin-1-yl}-2-hydroxypropyl]-4,4′-bipiperidine-1-carboxylate], the IC50 amounted to 2690 nM.

As to `CS(=O)(=O)N1CCc2c(c(-c3ccc(Cl)c(C#Cc4ccsc4)c3)nn2CCCN2CCOCC2)C1` [Example 23, 3-(4-Chloro-3-thiophen-3-ylethynyl-phenyl)-5-methanesulfonyl-1-(3-morpholin-4-yl-propyl)-4,5,6,7-tetrahydro-1H-pyrazolo[4,3-c]pyridine], where the note is “CatS IC50, Table 2, average of results obtained”, the IC50 was found to be 1440 nM.

For the molecule `COC(=O)C1CCN(CC(O)Cn2nc(-c3ccc(C(F)(F)F)c(C#Cc4ccc(Cl)cc4)c3)c3c2CCN(S(C)(=O)=O)C3)CC1` (centres unmarked) [Example 117, 1-(3-{3-[3-(4-Chloro-phenylethynyl)-4-trifluoromethyl-phenyl]-5-methanesulfonyl-4,5,6,7-tetrahydro-pyrazolo[4,3-c]pyridin-1-yl}-2-hydroxy-propyl)-piperidine-4-carboxylic acid methyl ester], the IC50 amounted to 40 nM.

In the case of `CS(=O)(=O)NC1CCN(CCCn2nc(-c3ccc(Cl)c(C#Cc4ccc(CNCc5ccc(Cl)cc5)cc4)c3)c3c2CCN(S(C)(=O)=O)C3)CC1` [Example 359, N-(1-{3-[3-(4-Chloro-3-{[4-({[(4-chlorophenyl)methyl]amino}methyl)phenyl]ethynyl}phenyl)-5-(methylsulfonyl)-4,5,6,7-tetrahydro-1H-pyrazolo[4,3-c]pyridin-1-yl]propyl}piperidin-4-yl)methanesulfonamide], under “CatS IC50”, the IC50 was found to be 80 nM.

Consider `COc1cccc(CNCc2ccc(C#Cc3cc(-c4nn(CCCN5CCSCC5)c5c4CN(C(N)=O)CC5)ccc3Cl)cc2)c1` [Example 534, 3-[4-Chloro-3-({4-[({[3-(methyloxy)phenyl]methyl}amino)methyl]phenyl}ethynyl)phenyl]-1-(3-thiomorpholin-4-ylpropyl)-1,4,6,7-tetrahydro-5H-pyrazolo[4,3-c]pyridine-5-carboxamide], for which the IC50 (CatS IC50) was 90 nM.

For the molecule `CS(=O)(=O)N1CCc2c(c(-c3ccc(Cl)c(C#Cc4ccc(CNCc5ccc(Cl)cc5)cc4)c3)nn2CCCN2CCC(c3ccccc3)CC2)C1` [Example 178, 1-{4-[(2-Chloro-5-{5-(methylsulfonyl)-1-[3-(4-phenylpiperidin-1-yl)propyl]-4,5,6,7-tetrahydro-1H-pyrazolo[4,3-c]pyridin-3-yl}phenyl)ethynyl]phenyl}-N-[(4-chlorophenyl)methyl]methanamine], the IC50 turned out to be 10 nM.
